{
  "source": "patent US10144726B2",
  "about": "“Modulators of the p70S6 kinase for use in the treatment of brain disorders and triple-negative breast cancer” (SENTINEL ONCOLOGY LIMITED, priority 2015, dated 2018)",
  "key": {"MDA-MB-231 cells": {"tested_on": "MDA-MB-231 cells", "assay": "Tumour initiation and metastasis in an in vivo model of triple negative breast cancer (MDA-MB-231, mammary fat pad)", "set-up": "species or system female athymic nude mice", "excerpt": "In order to test the efficacy of an inhibitor of S6K1 in an in vivo model of tumour initiation and metastasis, the following experiment was established:\nA total of 30 female athymic nude mice (Hsd:Athymic Nude-Foxn1^nu) were purchased from Harlan (UK) and acclimatised for 7 days prior to study commencement. Animals were housed in IVC cages (5 per cage) with individual mice identified by ear punch. All animals were allowed free access to a standard certified commercial diet and sanitised water during the study. The holding room was maintained under standard conditions: 20-24° C., 40-70% humidity and a 12 h light/dark cycle.\nOn day −1, animals were randomly assigned to treatment groups as indicated in the table below, and drug treatment commenced. On day 0, MDA-MB-231 cells (1×10^6 in matrigel) were implanted into the second mammary fat pad.\nThe dosing route was PO and the formulation was as follows: 10% DMSO/90% hydroxypropyl-β-cyclodextrin (20% w/v aqueous)\n(1) Time to palpation of tumour (latency) (2) tumour volume (3) tumour and organ weights as a measure of metastasis (4) visual appearance of metastatic nodules in the lungs"}, "MCF-7 cells": {"tested_on": "MCF-7 cells", "assay": "MCF-7 proliferation assay (Alamar blue, 72 h)", "type": "cell-based", "settings": "Homo sapiens, MCF7, 72 h; read-out: (c) MCF-7 proliferation IC50", "procedure": "The following assay was used to determine the ability of test compounds to inhibit cell growth.\nThe following protocol was used: • 1) MCF-7 cells were seeded in 96-well plates at 5000 cells per well and allowed to adhere overnight prior to addition of compound or vehicle control. • 2) Test compounds were prepared from 10 mM DMSO stocks to give a final concentration range of 100 μM, 30 μM, 10 μM, 3 μM, 1 μM, 0.3 μM, 0.1 μM, 0.03 μM, 0.01 μM and vehicle control. The DMSO content was constant at 1%. • 3) Test compounds were incubated with the cells for 72 h at 37° C. 5% CO2 in a humidified atmosphere. • 4) Alamar blue 10% (v/v) was then added and incubated for a further 6 h, and fluorescent product detected using the BMG FLUOstar plate reader. • 5) Data were analysed using a 4-parameter logistic equation in GraphPad Prism."}, "MDA-MB-231 (luc) cells": {"tested_on": "MDA-MB-231 (luc) cells", "assay": "Control of brain metastases arising from MDA-MB-231 (luc) cells after intra-cardiac injection", "type": "in vivo", "excerpt": "In order to test the efficacy of an inhibitor of S6K1 in preventing brain metastases arising from TNBC cells, an in vivo mouse model was established:\nUsing a luciferase-tagged TNBC cell line (MDA-MB-231 (luc)) it was possible to track the spread of metastatic cells to the brain and other major organs via mouse whole-body imaging.\nThe MDA-MB-231(luc) cell-line was derived from MDA-MB-231 cells originally purchased from ATCC. These cells were stably transfected with pGL4.51 (Promega) using Lipofectamine 2000 (Life Technologies). Stably transfected colonies were selected for using neomycin and the most highly expressing clone was expanded. The cells have similar in vivo growth characteristics as the parental MDA-MB-231 cells.\nFemale athymic mice (Hsd:Athymic Nude-Foxn1^nu) were purchased from Harlan (UK) and acclimatised for 7 days prior to study commencement. Animals were housed in\nThe dosing route was p.o. and the formulation was as follows: 10% DMSO/90% hydroxypropyl-β-cyclodextrin (20% w/v aqueous)\nOn day 0 animals were anaesthetized and injected with 1×10^5 MDA-MB-231 (luc) cells directly into the heart. Intra-cardiac injection was chosen as this method leads to brain metastases. On day +1 animals were imaged using a Xenogen IVIS machine (following IP injection of 150 mg/kg) of D-luciferin). Evidence of light only in the cardiac area was indicative of a failed implantation and these animals were removed from the study. The experiment was commenced with 7 animals per treatment group to guarantee 5 animals per group completed the study.\nAnimals were imaged on 3 occasions during the study: 24 hours following intracardiac injection, 35 days after implantation and at the end of the study (70 days after implantation). For imaging, animals were first injected i.p. with D-luciferin (150 mg/kg) and 10 minutes later the animals were imaged under anaesthesia.\nAt the end of the 70 days, animals were imaged using the same method as described at 35 days. Following this the animals were then sacrificed and brain, liver and lungs were removed and imaged individually for metastatic spread."}, "[1]": {"tested_on": "audiogenic seizures in FXS (Fmr1 KO) mice", "assay": "Audiogenic seizure assay, in vivo model of Fragile X Syndrome", "set-up": "species or system FVB background", "settings": "25 mg/kg QD × 7 PO", "excerpt": "Seizures occur in conjunction with FXS and autism in up to one-quarter of children with these disorders (Berry-Kravis E (2002) Epilepsy in fragile X syndrome. Dev. Med. Child Neurol. 44(11):724-728). […] The audiogenic seizure assay (AGS) is a well documented mouse model of FXS (Audiogenic seizures susceptibility in transgenic mice with fragile X syndrome, Epilepsia. 2000 January; 41(1):19-23). In such a model it is possible to dose compounds to observe effects on susceptibility of the mice to audiogenic seizures. The following AGS experiment was set up to test the efficacy of compounds of this application:\nStrain of FXS Mouse Used: FVB Background\nVehicle used: 10% DMSO/90% hydroxypropyl-β-cyclodextrin (20% w/v aqueous)\nAnimals were assessed in AGS following 7 consecutive days of dosing.\nThe experimental chamber consisted of a plastic cage of dimensions 25×25×47 cm in which a doorbell (Electrical bell Heath Zenith, model 172C-A) had been mounted on the cage roof.\nMice were taken from their housing room one by one and transferred into the experimental chamber and allowed to explore the novel environment (basal noise ˜65 dB) for a period of 30 seconds after which point the bell was rung (124 dB).\nThe resulting motor responses were classified using a scale modified from the one originally described by Jobe et al. (1973): no response (NR: pause or continuous exploration), wild running (WR), clonic seizure (CS), tonic seizure (TS), respiratory arrest and/or death (RA). In order to define the intensity of the behavioral response a seizure severity score was used (SSS) (Musumeci et al., 2000), consisting of a score assigned to each animal depending on its behavioral response (NR=0, WR=1, CS=2, TS=3, RA=4). To determine the SSS for a treatment group the scores of the individual mice are summed. The motor response rate is defined as the percentage of animals per group responding to the stimulus."}, "[2]": {"settings": "250 mg/kg p.o. QD 21 days, vs vehicle"}},
  "data": [
    {"smiles": "C[C@@H](Nc1cnc2cc(-c3cn[nH]c3)ccc2n1)c1cccc(Cl)c1", "note": "[Example 15]", "values": [
      {"measurement": "Mean no. of nodules per lung", "setting": "MDA-MB-231 cells; 250 mg/kg QD × 21, at necroscopy", "value": 1},
      {"measurement": "Lung weight at day 21", "setting": "MDA-MB-231 cells; [2]", "value": "reduction in weight of lungs"},
      {"measurement": "Rate of tumour incidence", "setting": "MDA-MB-231 cells; [2]", "value": "decreases"},
      {"measurement": "Time to palpation of tumour (latency)", "setting": "MDA-MB-231 cells; [2]", "value": "delays"},
      {"measurement": "Tumour weight at day 21", "setting": "MDA-MB-231 cells; [2]", "value": "weighed significantly less"},
      {"measurement": "Tumour volume", "setting": "MDA-MB-231 cells; 250 mg/kg p.o. QD 21 days, vs vehicle, p<0.05", "value": "reduction in volume of tumours which is statistically significant over vehicle"},
      {"measurement": "IC50", "setting": "MCF-7 cells", "value": 12, "unit": "µM"},
      {"measurement": "Incidence of metastasis Brain", "setting": "MDA-MB-231 (luc) cells; 125 mg/kg p.o. BID x 70 days", "value": 0, "unit": "%"},
      {"measurement": "Incidence of metastasis Liver", "setting": "MDA-MB-231 (luc) cells; 125 mg/kg p.o. BID x 70 days", "value": 0, "unit": "%"},
      {"measurement": "Incidence of metastasis Lung", "setting": "MDA-MB-231 (luc) cells; 125 mg/kg p.o. BID x 70 days", "value": 40, "unit": "%"},
      {"measurement": "No. deaths on study", "setting": "MDA-MB-231 (luc) cells; 125 mg/kg p.o. BID x 70 days", "value": 0},
      {"measurement": "Animals with visible metastases, whole body imaging", "setting": "MDA-MB-231 (luc) cells; 125 mg/kg p.o. BID, at 35 days", "value": "0 out of 5"},
      {"measurement": "Tolerability", "setting": "MDA-MB-231 (luc) cells; 70 consecutive days of BID dosing, no treatment related deaths or adverse clinical signs", "value": "well-tolerated"},
      {"measurement": "CS (clonic seizure), number of animals", "setting": "[1]", "value": 0},
      {"measurement": "NR (no response), number of animals", "setting": "[1]", "value": 6},
      {"measurement": "RA (respiratory arrest and/or death), number of animals", "setting": "[1]", "value": 0},
      {"measurement": "SSS (seizure severity score, summed for the group)", "setting": "[1]", "value": 2},
      {"measurement": "TS (tonic seizure), number of animals", "setting": "[1]", "value": 0},
      {"measurement": "WR (wild running), number of animals", "setting": "[1]", "value": 2},
      {"measurement": "Incidence of audiogenic seizures and severity of response", "setting": "[1]; vs vehicle, p<0.01 by Fisher's test", "value": "reduced"}
    ]}
  ]
}
